From article PMC8058733, “A pain killer without analgesic tolerance designed by co-targeting PSD-95-nNOS interaction and α2-containning GABAARs” (Theranostics, 2021)

How the values were obtained:
α5β3γ2 GABAARs = assay: Potentiation of GABA-evoked currents, whole-cell patch-clamp in HEK293 cells transiently expressing recombinant GABAARs; type: cell-based
[1] = tested on: laminae I excitatory neurons in the SDH; assay: mIPSCs/mEPSCs recordings from acute spinal slices of chronically treated rats; type: in vivo, rat; details: rats, ZL006-05 0.3 mg/d intrathecal infusion ×11 d
From the text: Osmotic minipumps (models 1004 for mouse and 2ML4 for rat; Alzet) and intrathecal cannulas (0.61 mm outer diameter and 0.28 mm inner diameter for mouse, 0.99 mm outer diameter and 0.58 mm inner diameter for rat) were filled with a solution of PBS. Cannulas were inserted into the subarachnoid space through the space between the L5 and L6 vertebrae and the tip of the catheter was implanted at the L5 spinal segmental level.
All solutions were bubbled with 95% O2 -5% CO2.
For mPSCs measurements, whole-cell recordings were made from putative excitatory neurons in superficial dorsal horn using low-resistance pipettes (4-8 MΩ). Before mPSCs measurements, excitatory neurons were distinguished from inhibitory neurons by firing pattern analysis according to the established relationship between neuronal firing pattern and its neurotransmitter phenotype, [32]-[34] For mEPSCs measurement, the membrane potential was held at -60 mV. […] Tetrodotoxin (0.5 μM) and bicuculline (20 μM) were added to block action potentials and GABAA receptor-mediated currents respectively. For mIPSCs measurement, the membrane potential was held at -70 mV, microelectrodes were filled with internal pipette solution containing CsCl 140, HEPES 10.0, MgATP 4.0, NaGTP 3.0, EGTA 1.0, MgCl2 1.0, CaCl2 0.3 (in mM). […]. […] Each recording lasts more than 5 min. Data were analyzed using Mini software. Up to 120 events from each neuron were selected at a fixed sampling interval to generate cumulative probability.

spatial memory = assay: Morris water maze task; type: in vivo; details: rats; ZL006-05 90 mg/kg/d, i.g.; MK801 0.25 mg/kg/d, i.v.; 6 days
Protocol: The Morris water maze task was used to exam spatial cognitive performance of rats. A circular swimming pool (Jiliang Neuroscience Inc.) measuring 180 cm in diameter and 48 cm in height was filled with water to a depth of 26 cm at 24 ± 2 °C. Four starting points around the edge of the pool were designated as N, E, S, and W, which divided the pool into four quadrants. A platform, 10 cm in diameter, was located in a constant position in the middle of one quadrant. To render it invisible to the rats, platform was submerged 2.0 cm below the surface of the water. The task for the rats was to escape from the water by locating the hidden platform. Two days before training, the animals were habituated to swimming for 60 s in the pool without a platform. In training session, rats were trained to escape from the water by locating the platform which was above the water with a red flag on it. Then, one block of four trails was given for 6 consecutive days, and on each day, two groups of rats were administrated with MK801 (0.25 mg/kg, i.v.) or vehicle (6 mL/kg, i.v.) 30 minutes before the first trail. Meanwhile, another two groups of rats were treated with ZL006-05 (90 mg/kg, i.g.) or vehicle (6 mL/kg, i.g.) 1 hour before the first trail. […] During retention, the number of crossings of the platform location and the time spent in the target quadrant were measured.

**Q.** Which results are given for CC1(C)C2CCC1(C)C(OC(=O)c1ccc(NCc3cc(Cl)cc(Cl)c3O)cc1O)C2 (stereo not shown) [ZL006-05]?
**A.** Effect on α5GABAAR (in words) (α5β3γ2 GABAARs): low efficacy on α3GABAAR and α5GABAAR; mEPSCs [1]: without affecting mEPSCs; mIPSCs [1]: significantly increased mIPSCs amplitude; Spatial memory in the Morris water maze task (spatial memory): but not ZL006-05 caused significantly impaired spatial memory
